According to ChEMBL document CHEMBL3046801, “Synthesis of 2-R1-2-(4-(2-fluoroethoxy)benzamido)acetate as potential PET imaging agents” (Med Chem Res, 2012):

Tests used:
Lung [1] = assay: Biodistribution in tumor bearing Mus musculus KM (mouse) Lung at 15 min by microPET imaging analysis; format: ADME, organism-based; conditions: in vivo, 0.25 h
Kidney [2] = assay: Biodistribution in tumor bearing Mus musculus KM (mouse) kidney at 60 min by microPET imaging analysis; format: ADME, organism-based; conditions: in vivo, 1 h
Blood [3] = assay: Biodistribution in tumor bearing Mus musculus KM (mouse) blood at 15 min by microPET imaging analysis; format: ADME, organism-based; conditions: in vivo, 0.25 h
Brain [4] = assay: Biodistribution in tumor bearing Mus musculus KM (mouse) brain at 5 min by microPET imaging analysis; format: ADME, organism-based; conditions: in vivo
Nucleic Acid [5] = assay: Ratio of drug uptake in tumor to muscle in Mus musculus KM (mouse) at 60 min; format: ADME, nucleic-acid assay; conditions: in vivo, 1 h
Blood [6] = assay: Biodistribution in tumor bearing Mus musculus KM (mouse) blood at 30 min by microPET imaging analysis; format: ADME, organism-based; conditions: in vivo, 0.5 h
Lung [7] = assay: Biodistribution in tumor bearing Mus musculus KM (mouse) Lung at 30 min by microPET imaging analysis; format: ADME, organism-based; conditions: in vivo, 0.5 h
Tumour [8] = assay: Biodistribution in Mus musculus KM (mouse) tumor at 5 min by microPET imaging analysis; format: ADME, organism-based, Neoplasm; conditions: in vivo
Spleen [9] = assay: Biodistribution in tumor bearing Mus musculus KM (mouse) spleen at 15 min by microPET imaging analysis; format: ADME, organism-based; conditions: in vivo, 0.25 h
Tumour [10] = assay: Biodistribution in Mus musculus KM (mouse) tumor at 60 min by microPET imaging analysis; format: ADME, organism-based, Neoplasm; conditions: in vivo, 1 h
Spleen [11] = assay: Biodistribution in tumor bearing Mus musculus KM (mouse) spleen at 120 min by microPET imaging analysis; format: ADME, organism-based; conditions: in vivo, 2 h
Muscle tissue [12] = assay: Biodistribution in tumor bearing Mus musculus KM (mouse) muscle at 15 min by microPET imaging analysis; format: ADME, organism-based; conditions: in vivo, 0.25 h
Spleen [13] = assay: Biodistribution in tumor bearing Mus musculus KM (mouse) spleen at 30 min by microPET imaging analysis; format: ADME, organism-based; conditions: in vivo, 0.5 h
Blood [14] = assay: Biodistribution in tumor bearing Mus musculus KM (mouse) blood at 5 min by microPET imaging analysis; format: ADME, organism-based; conditions: in vivo
Blood [15] = assay: Biodistribution in tumor bearing Mus musculus KM (mouse) blood at 120 min by microPET imaging analysis; format: ADME, organism-based; conditions: in vivo, 2 h
Heart [16] = assay: Biodistribution in tumor bearing Mus musculus KM (mouse) heart at 15 min by microPET imaging analysis; format: ADME, organism-based; conditions: in vivo, 0.25 h
Lung [17] = assay: Biodistribution in tumor bearing Mus musculus KM (mouse) Lung at 5 min by microPET imaging analysis; format: ADME, organism-based; conditions: in vivo
Heart [18] = assay: Biodistribution in tumor bearing Mus musculus KM (mouse) heart at 5 min by microPET imaging analysis; format: ADME, organism-based; conditions: in vivo
Brain [19] = assay: Biodistribution in tumor bearing Mus musculus KM (mouse) brain at 15 min by microPET imaging analysis; format: ADME, organism-based; conditions: in vivo, 0.25 h
Nucleic Acid [20] = assay: Ratio of drug uptake in tumor to muscle in Mus musculus KM (mouse) at 15 min; format: ADME, nucleic-acid assay; conditions: in vivo, 0.25 h
Muscle tissue [21] = assay: Biodistribution in tumor bearing Mus musculus KM (mouse) muscle at 30 min by microPET imaging analysis; format: ADME, organism-based; conditions: in vivo, 0.5 h
Liver [22] = assay: Biodistribution in tumor bearing Mus musculus KM (mouse) liver at 5 min by microPET imaging analysis; format: ADME, organism-based; conditions: in vivo
Muscle tissue [23] = assay: Biodistribution in tumor bearing Mus musculus KM (mouse) muscle at 60 min by microPET imaging analysis; format: ADME, organism-based; conditions: in vivo, 1 h
Nucleic Acid [24] = assay: Ratio of drug uptake in tumor to muscle in Mus musculus KM (mouse) at 30 min; format: ADME, nucleic-acid assay; conditions: in vivo, 0.5 h
Kidney [25] = assay: Biodistribution in tumor bearing Mus musculus KM (mouse) kidney at 120 min by microPET imaging analysis; format: ADME, organism-based; conditions: in vivo, 2 h
Nucleic Acid [26] = assay: Ratio of drug uptake in tumor to muscle in Mus musculus KM (mouse) at 120 min; format: ADME; conditions: in vivo, 2 h
Kidney [27] = assay: Biodistribution in tumor bearing Mus musculus KM (mouse) kidney at 5 min by microPET imaging analysis; format: ADME, organism-based; conditions: in vivo
Muscle tissue [28] = assay: Biodistribution in tumor bearing Mus musculus KM (mouse) muscle at 120 min by microPET imaging analysis; format: ADME, organism-based; conditions: in vivo, 2 h
Lung [29] = assay: Biodistribution in tumor bearing Mus musculus KM (mouse) Lung at 120 min by microPET imaging analysis; format: ADME, organism-based; conditions: in vivo, 2 h
Brain [30] = assay: Biodistribution in tumor bearing Mus musculus KM (mouse) brain at 30 min by microPET imaging analysis; format: ADME, organism-based; conditions: in vivo, 0.5 h
Spleen [31] = assay: Biodistribution in tumor bearing Mus musculus KM (mouse) spleen at 5 min by microPET imaging analysis; format: ADME, organism-based; conditions: in vivo
Tumour [32] = assay: Biodistribution in Mus musculus KM (mouse) tumor at 120 min by microPET imaging analysis; format: ADME, organism-based, Neoplasm; conditions: in vivo, 2 h
Lung [33] = assay: Biodistribution in tumor bearing Mus musculus KM (mouse) Lung at 60 min by microPET imaging analysis; format: ADME, organism-based; conditions: in vivo, 1 h
Liver [34] = assay: Biodistribution in tumor bearing Mus musculus KM (mouse) liver at 60 min by microPET imaging analysis; format: ADME, organism-based; conditions: in vivo, 1 h
Tumour [35] = assay: Biodistribution in Mus musculus KM (mouse) tumor at 15 min by microPET imaging analysis; format: ADME, organism-based, Neoplasm; conditions: in vivo, 0.25 h
Heart [36] = assay: Biodistribution in tumor bearing Mus musculus KM (mouse) heart at 120 min by microPET imaging analysis; format: ADME, organism-based; conditions: in vivo, 2 h
Brain [37] = assay: Biodistribution in tumor bearing Mus musculus KM (mouse) brain at 120 min by microPET imaging analysis; format: ADME, organism-based; conditions: in vivo, 2 h
Brain [38] = assay: Biodistribution in tumor bearing Mus musculus KM (mouse) brain at 60 min by microPET imaging analysis; format: ADME, organism-based; conditions: in vivo, 1 h
Liver [39] = assay: Biodistribution in tumor bearing Mus musculus KM (mouse) liver at 120 min by microPET imaging analysis; format: ADME, organism-based; conditions: in vivo, 2 h
Kidney [40] = assay: Biodistribution in tumor bearing Mus musculus KM (mouse) kidney at 15 min by microPET imaging analysis; format: ADME, organism-based; conditions: in vivo, 0.25 h
Kidney [41] = assay: Biodistribution in tumor bearing Mus musculus KM (mouse) kidney at 30 min by microPET imaging analysis; format: ADME, organism-based; conditions: in vivo, 0.5 h
Tumour [42] = assay: Biodistribution in Mus musculus KM (mouse) tumor at 30 min by microPET imaging analysis; format: ADME, organism-based, Neoplasm; conditions: in vivo, 0.5 h
Liver [43] = assay: Biodistribution in tumor bearing Mus musculus KM (mouse) liver at 15 min by microPET imaging analysis; format: ADME, organism-based; conditions: in vivo, 0.25 h
Muscle tissue [44] = assay: Biodistribution in tumor bearing Mus musculus KM (mouse) muscle at 5 min by microPET imaging analysis; format: ADME, organism-based; conditions: in vivo
Heart [45] = assay: Biodistribution in tumor bearing Mus musculus KM (mouse) heart at 60 min by microPET imaging analysis; format: ADME, organism-based; conditions: in vivo, 1 h
Blood [46] = assay: Biodistribution in tumor bearing Mus musculus KM (mouse) blood at 60 min by microPET imaging analysis; format: ADME, organism-based; conditions: in vivo, 1 h
Spleen [47] = assay: Biodistribution in tumor bearing Mus musculus KM (mouse) spleen at 60 min by microPET imaging analysis; format: ADME, organism-based; conditions: in vivo, 1 h
Heart [48] = assay: Biodistribution in tumor bearing Mus musculus KM (mouse) heart at 30 min by microPET imaging analysis; format: ADME, organism-based; conditions: in vivo, 0.5 h
Liver [49] = assay: Biodistribution in tumor bearing Mus musculus KM (mouse) liver at 30 min by microPET imaging analysis; format: ADME, organism-based; conditions: in vivo, 0.5 h

Drug uptake (Lung [1]): 1.96 % ID/g | Drug uptake (Kidney [2]): 0.9 % ID/g | Drug uptake (Blood [3]): 0.94 % ID/g | Drug uptake (Brain [4]): 3.81 % ID/g | Ratio (Nucleic Acid [5]): 1.94 | Drug uptake (Blood [6]): 0.29 % ID/g | Drug uptake (Lung [7]): 1.4 % ID/g | Drug uptake (Tumour [8]): 1.96 % ID/g | Drug uptake (Spleen [9]): 1.98 % ID/g | Drug uptake (Tumour [10]): 3.86 % ID/g | Drug uptake (Spleen [11]): 1.35 % ID/g | Drug uptake (Muscle tissue [12]): 2.33 % ID/g | Drug uptake (Spleen [13]): 1.75 % ID/g | Drug uptake (Blood [14]): 2.01 % ID/g | Drug uptake (Blood [15]): 0.15 % ID/g | Drug uptake (Heart [16]): 6.12 % ID/g | Drug uptake (Lung [17]): 2.37 % ID/g | Drug uptake (Heart [18]): 5.33 % ID/g | Drug uptake (Brain [19]): 4.55 % ID/g | Ratio (Nucleic Acid [20]): 1.28 | Drug uptake (Muscle tissue [21]): 2.08 % ID/g | Drug uptake (Liver [22]): 1.85 % ID/g | Drug uptake (Muscle tissue [23]): 1.99 % ID/g | Ratio (Nucleic Acid [24]): 1.52 | Drug uptake (Kidney [25]): 0.52 % ID/g | Ratio (Nucleic Acid [26]): 1.74 | Drug uptake (Kidney [27]): 3.36 % ID/g | Drug uptake (Muscle tissue [28]): 1.85 % ID/g | Drug uptake (Lung [29]): 1.05 % ID/g | Drug uptake (Brain [30]): 4.25 % ID/g | Drug uptake (Spleen [31]): 1.92 % ID/g | Drug uptake (Tumour [32]): 3.12 % ID/g | Drug uptake (Lung [33]): 1.52 % ID/g | Drug uptake (Liver [34]): 0.5 % ID/g | Drug uptake (Tumour [35]): 2.97 % ID/g | Drug uptake (Heart [36]): 9.6 % ID/g | Drug uptake (Brain [37]): 1.89 % ID/g | Drug uptake (Brain [38]): 3.51 % ID/g | Drug uptake (Liver [39]): 0.49 % ID/g | Drug uptake (Kidney [40]): 2.05 % ID/g | Drug uptake (Kidney [41]): 1.07 % ID/g | Drug uptake (Tumour [42]): 3.16 % ID/g | Drug uptake (Liver [43]): 0.92 % ID/g | Drug uptake (Muscle tissue [44]): 2.92 % ID/g | Drug uptake (Heart [45]): 8.87 % ID/g | Drug uptake (Blood [46]): 0.19 % ID/g | Drug uptake (Spleen [47]): 1.83 % ID/g | Drug uptake (Heart [48]): 6.42 % ID/g | Drug uptake (Liver [49]): 0.46 % ID/g
SMILES: OC[C@H]1OC(O)[C@H]([18F])[C@@H](O)[C@@H]1O (some centres undefined) [FLUDEOXYGLUCOSE F 18]
